According to patent US20110034371A1, “L. CASEI RHAMNOSUS SECRETED FACTORS AND USE THEREOF” (priority 2009, published 2011):

How the values were obtained:
THP-1 cells = assay: Annexin V-FITC and PI staining, flow cytometry: apoptosis of THP-1 cells; format: cell-based, human
Procedure: (§1) Lymphocytes, monocytes and THP-1 cells (10^6 per test) were collected after incubation with LcrS, 3.125-25 μg mL^−1, for various times. After washing twice with PBS, the cells were resuspended in Annexin V binding buffer (10 mM HEPES-NaOH (pH 7.4), 140 mM NaCl, and 2.5 mM CaCl2). After centrifugation, the cells were incubated in 500 μl of the same buffer containing 1.25 it FITC-conjugated Annexin V (BD PharMingen, San Diego, Calif., USA) at room temperature for 15 min in the dark. Data acquisition and analysis were performed by the Becton-Dickinson FACSan flow cytometer (Franklin Lakes, N.J., USA) using CellQuest software (Becton-Dickinson, Oxford, UK). […]
as §1, with “500 W” for “500 μl”, “1.25 μl” for “1.25 it”
as §1, with “1.25 μl” for “1.25 it”
The TGF-β regulates a wide variety of biological functions including apoptosis. The TGF-β production was increasing in the LcrS5-30 treated THP-1 cells. It was reasonable to postulate that apoptosis might be triggered by TGF-β rather than the LcrS5-30. To confirm this assumption, a pharmacological inhibitor, SB431542, would be applied. The percentages of apoptotic cells in 10 ng mL^−1 and 1 ng mL^−1 TGF-β exposed preparations were 18.9±0.44% and 16.57±0.67%, respectively (FIG. 8B). Treatment with 12.5 μg mL^−1 or 25 μg mL^−1 of the LcrS5-30 induced dissimilar level of apoptosis of THP-1 cells that were 26.35±0.77% and 74.96±0.38%, respectively.

[1] = tested on: human peripheral blood T cells; settings: 18 h culture, 5 μg mL^−1; cited from earlier work

Compound: NC(=O)c1ccc(-c2nc(-c3ccc4c(c3)OCO4)c(-c3ccccn3)[nH]2)cc1 [SB-431542]
- blocking of TGF-β1-induced apoptosis (THP-1 cells; 1 μg mL^−1 inhibitor, 24 h): significantly blocked
- blocking of apoptosis (THP-1 cells; 1 μg mL^−1 inhibitor, 24 h): significantly blocked

Compound: TGF-β: anti-inflammatory cytokine applied to THP-1 cells at 1 and 10 ng mL^−1
- percentage of apoptotic cells (THP-1 cells; 1 ng mL^−1, 24 h): 16.57±0.67%
- percentage of apoptotic cells (THP-1 cells; 10 ng mL^−1, 24 h): 18.9±0.44%
- induced apoptosis in the presence of TGF-β inhibitor SB431542 (THP-1 cells; One ng mL^−1, 1 μg mL^−1 SB431542, 24 h): SB431542 sensitive

Compound: infliximab
- killing activity (as much as) [1]: ≤ 50.6%
